Results on six compounds are retold here after ChEMBL document CHEMBL1153116, “Bio-transformation of artemisinin using soil microbe: Direct C-acetoxylation of artemisinin at C-9 by Penicillium simplissimum” (2010).

What all share (assay type): functional
Assay [1] relates to SW-620. Nature of the assay: Antitumor activity against human SW620 cells at 50 uM after 48 hrs by Sulforhodamine assay. The note with it: SW-620, 48 h, read-out: GI.
The test system of assay [2] is A549. The assay is described as follows: Antitumor activity against human A549 cells at 50 uM after 48 hrs by Sulforhodamine assay. The note with it: A549, 48 h, read-out: GI.
Assay [3] concerns IGROV-1. The assay is described as follows: Antitumor activity against human IGROV1 cells at 50 uM after 48 hrs by Sulforhodamine assay. The note with it: IGROV-1, 48 h, read-out: GI.
For assay [4], the system named is IMR-32. The assay is described as follows: Antitumor activity against human IMR32 cells at 50 uM after 48 hrs by Sulforhodamine assay. Conditions: IMR-32, 48 h, read-out: GI.
Assay [5] relates to HCT-15. The assay is described as follows: Antitumor activity against human HCT15 cells at 50 uM after 48 hrs by Sulforhodamine assay. The note with it: HCT-15, 48 h, read-out: GI.
Assay [6] deals with A549. The assay is described as follows: Antitumor activity against human A549 cells at 10 uM after 48 hrs by Sulforhodamine assay. The note with it: A549, 48 h, read-out: GI.
In assay [7] the test system is IGROV-1. Nature of the assay: Antitumor activity against human IGROV1 cells at 10 uM after 48 hrs by Sulforhodamine assay. The note with it: IGROV-1, 48 h, read-out: GI.
The test system of assay [8] is SW-620. Nature of the assay: Antitumor activity against human SW620 cells at 20 uM after 48 hrs by Sulforhodamine assay. Conditions: SW-620, 48 h, read-out: GI.
The subject of assay [9] is HCT-15. The assay is described as follows: Antitumor activity against human HCT15 cells at 20 uM after 48 hrs by Sulforhodamine assay. The note with it: HCT-15, 48 h, read-out: GI.
Assay [10] relates to IMR-32. Nature of the assay: Antitumor activity against human IMR32 cells at 1 uM after 48 hrs by Sulforhodamine assay. The note with it: IMR-32, 48 h, read-out: GI.

For `CC(=O)O[C@H]1C[C@H]2[C@H](C)CC[C@H]3[C@@H](C)C(=O)O[C@@H]4O[C@@]1(C)OO[C@]423`, the inhibition of growth at 50 µM was 0% in assay [1]; 28% in [2]; 10% in [3]; 31% in [4]; 32% in [5].

Take `CC(=O)O[C@H]1C(=O)[C@@]2(C)[C@H]([C@H](OC(=O)c3ccccc3)[C@]3(O)C[C@H](OC(=O)[C@H](O)[C@@H](NC(=O)c4ccccc4)c4ccccc4)C(C)=C1C3(C)C)[C@]1(OC(C)=O)CO[C@@H]1C[C@@H]2O` [PACLITAXEL]: the inhibition of growth at 10 µM amounted to 52% in [6] and 56% in [7].

For `O=c1[nH]cc(F)c(=O)[nH]1` [FLUOROURACIL], the results for the inhibition of growth at 20 µM in [8] and in assay [9] were 54% and 49%, respectively.

On to `C[C@@H]1CC[C@H]2[C@@H](C)C(=O)O[C@@H]3O[C@@]4(C)OO[C@@]32[C@H]1C[C@H]4O`, for which the inhibition of growth at 50 µM in assay [1] is 0%; in assay [2], 18%; in assay [3], 3%; in [4] it was 20%; in [5] it was 28%.

As for `COc1cccc2c1C(=O)c1c(O)c3c(c(O)c1C2=O)C[C@@](O)(C(=O)CO)C[C@@H]3O[C@H]1C[C@H](N)[C@H](O)[C@H](C)O1` [DOXORUBICIN], in assay [10], the inhibition of growth at 1 µM is 72%.

As for `C[C@@H]1CC[C@H]2[C@@H](C)C(=O)O[C@@H]3O[C@@]4(C)CC[C@@H]1[C@]32OO4` [ARTEMISININ], the inhibition of growth at 50 µM is 35% in assay [1]; 29% in [2]; 26% in assay [3]; 23% in [4]; 31% in assay [5].
